For data set [1], the system named is human umbilical vein endothelial cells (HUVECs). The data set is described as follows: Tube formation assay on Matrigel. It is filed as cell-based. Particulars: 5 h. The method, then: The tube formation assay was performed as previously described with some modifications. Matrigel (BD Biosciences, San Jose, CA, USA) was thawed overnight at 4 °C. Next, 50 μL Matrigel was coated on each well of the pre-chilled 96-well plates and then incubated at 37 °C for 1 h. HUVECs (5 × 10^4 cells/well) were seeded on the Matrigel and treated with various concentrations of Ro (0, 1, 3, 10, 30, 100 μg/mL), R1 (0, 5, 10, 20, 30, 40 μg/mL), IVa (0, 1, 3, 10, 30, 100 μg/mL), and E (0, 2, 4, 6, 8, 10 μg/mL). After incubation for 5 h, the formation of HUVEC tubular structures was captured using a microscope (Nikon eclipse Ti; Nikon, Tokyo, Japan). The tube length was quantified using Image-Pro Plus 6.0 software.

The test system of another data set is B16F10 melanoma tumour. The data set can be described thus: Tumour xenograft experiment in B16F10 tumour-bearing mice. It is filed as in vivo, C57BL/6J mice. Particulars: 25 mg/kg intraperitoneal, 15 days. The method, then: (§1) An anti-tumour assay was conducted in a mouse xenograft model. B16F10 cells were cultured in DMEM containing 10% FBS. After the collection of cells, the cells were re-suspended in normal saline to the appropriate concentrations. Next, 0.1 mL of the B16F10 cell suspension (1 × 10^6 cells) was subcutaneously injected via the right axillary region of the C57BL/6J mice. The tumour-bearing mice were randomly divided into three groups (n = 6/group): model control group, positive control group, and Ro (25 mg/kg) administration group. […] Normal and model mice were administered normal saline. The mice in the positive control group received CTX (20 mg/kg). The successive intraperitoneal injection of drugs into the mice from the day after tumour inoculation and the body weights were monitored every 2 days. After 15 days, all mice were sacrificed, and tumours were taken out and measured as previously described. The thymus and spleen were also removed and weighed to calculate the thymus and spleen indices. The tumour inhibition rate was calculated. The blood samples were collected from the retrobulbar vessels and added into tubes containing heparin. Subsequently, plasma samples were prepared by centrifugation for 10 min at 3800 rpm and stored at −80 °C for HPLC-MS analysis.
A xenograft experiment was performed using the same method as described in Section 2.2. Briefly, after the mice were inoculated with tumour cells, they were randomly divided into […] (n = 6/group): model control group, positive control group (CTX, 20 mg/kg), R1 (25 mg/kg), IVa (25 mg/kg), and E (5 mg/kg) administration groups. […] Normal and model mice were administered normal saline. Drugs were intraperitoneally injected into the mice for 15 consecutive days. Tumour volumes were measured every 2 days, and tumour growth curves were plotted. At the end of the experiment, the mice were sacrificed, and the tumour weight and tumour growth inhibition rates were calculated.

For data set [2] the following is noted: mouse, in vivo. The method, then:
as §1

The subject of the next data set is B16F10 melanoma cells. The data set can be described thus: MTT cell viability assay. It is filed as cell-based. Particulars: 0, 1, 3, 10, 30, 100 μg/mL, 24 h. The method, then: In this study, Ro was dissolved in dimethyl sulfoxide (DMSO) and diluted in DMEM and then filtered using a 0.22 μm membrane. The final concentration of DMSO in cell culture medium was 0.1%, and 0.1% DMSO-treated cells were used as controls. The effect of Ro on B16F10 cell growth in vitro was performed using the MTT assay. Briefly, exponentially growing B16F10 (1 × 10^4 cells/well) cells were seeded onto 96-well plates and incubated for 24 h in complete medium. After 24 h incubation, the cells were treated with various concentrations of Ro (0, 1, 3, 10, 30, 100 μg/mL) for 24 h, and MTT (0.5%, 20 μL) was then added to each well and incubated for an additional 4 h at 37 °C. The formazan crystals were dissolved in DMSO (150 μL), and the absorbance at 490 nm was measured using a microplate reader (BioTek Epoch; BioTek, Winooski, VT, USA)
The metabolites (standard substance) of Ro were dissolved in the same manner as Ro. Briefly, IVa, R1, and E were dissolved in dimethyl sulfoxide (DMSO), diluted in DMEM, and then filtered using a 0.22 μm membrane. The final concentration of DMSO in cell culture medium was 0.1%, and 0.1% DMSO-treated cells were used as controls. The effects of IVa, R1, and E on B16F10 cell growth were evaluated using the MTT assay as previously described. The cells were treated with various concentrations of IVa (0, 1, 3, 10, 30, 100 μg/mL), R1 (0, 5, 10, 20, 30, 40 μg/mL), and E (0, 2, 4, 6 μg/mL) for 24 h. After incubation, MTT (0.5%, 20 μL) was added and incubated for 4 h at 37 °C. Then the supernatants were carefully removed, and 150 μL DMSO was added to each well. After 10 min of incubation and vibration, the absorbance was read at a wavelength of 490 nm. IC50 values were calculated using Probit Analysis with SPSS 22.0 (SPSS Inc., Chicago, IL, USA).
In general terms: Tetrazolium dyes change colour on reduction, which living cells bring about.

The next data set in a line: Haemolysis test. The class given is cell-based, Sprague Dawley rats. Particulars: Sprague-Dawley, rat, isolated erythrocytes (2% haematocrit suspension), 37 °C, 60 min, read-out: Haemolysis Rate (%). Here is the method:
(§2) To evaluate the haemocompatibility of Ro, the haemolysis test was performed as previously described. Arterial blood was obtained from healthy Sprague Dawley rats. Then erythrocytes were separated from the plasma and lymphocytes by centrifugation (3000 rpm, 5 min) at 4 °C, washed three times with normal saline, and suspended in normal physiological saline at a haematocrit of 2%. Erythrocytes were used immediately after isolation. Next, 2.5 mL erythrocyte suspension and 2.5 mL medicated saline solution were added to a 10 mL centrifuge tube. The final concentrations of Ro were 1, 3, 10, 30, and 100 μg/mL. The negative and positive controls were normal physiological saline and 0.2% Triton X-100, respectively. The samples were incubated for a specific time period at 37 °C for 60 min. Next, the tube was centrifuged at 3000 rpm for 5 min. Finally, the optical density (OD) was obtained at a wavelength of 545 nm. Three parallel samples were laid in each group. The mean value of the three samples was obtained as the group OD value. The HR was expressed as the percentage and calculated according to the equation:HR = (ODt − ODn)/(ODp − ODn) × 100%,(1) where ODt indicates the OD value of the tested group, and ODn and ODp are the OD values of the negative and positive control groups, respectively. A haemolysis rate less than 5% is regarded as a nontoxic effect level.

In another data set the test system is erythrocytes. The data set can be described thus: Haemolysis test. It is filed as cell-based, Sprague Dawley rats. The settings on record: all concentrations up to 100 μg/mL. The method, then: as §2

Molecules are shown by their SMILES.

Consider `CC1(C)CC[C@]2(C(=O)O[C@@H]3O[C@H](CO)[C@@H](O)[C@H](O)[C@H]3O)CC[C@]3(C)C(=CC[C@@H]4[C@@]5(C)CC[C@H](O[C@@H]6O[C@H](C(=O)O)[C@@H](O)[C@H](O)[C@H]6O[C@@H]6O[C@H](CO)[C@@H](O)[C@H](O)[C@H]6O)C(C)(C)[C@@H]5CC[C@]43C)[C@@H]2C1` [Ro, ginsenoside Ro], for which the HUVEC tube formation result in data set [1] (100 μg/mL) was “stimulated tube formation”. In addition, the HUVEC tube formation result in data set [1] (1–30 μg/mL) is listed as “no effects”. This molecule had a tumour inhibition rate in the data set with B16F10 melanoma tumour of 75.7%. Further, in data set [2], the “Organ Indices Spleen” value is given as 3.54 ± 1.03 ×100, mg/g; the “Organ Indices Thymus” value was 1.67 ± 0.25 ×100, mg/g; the “Weight (g) After” value is listed as 24.73 ± 1.43 g; the “Weight (g) Before” value is listed as 22.91 ± 1.12 g. The “effect on B16F10 cell growth in vitro” value in the data set on B16F10 melanoma cells was “little effect”. In the data set “Haemolysis test” (1 μg/mL), the hemolysis at 60 min, 1 μg/mL is 0.15 ± 0.13%. The hemolysis at 60 min, 3 μg/mL in the data set “Haemolysis test” (3 μg/mL) was found to be 0.31 ± 0.13%. Besides, in the data set “Haemolysis test” (10 μg/mL), the hemolysis at 60 min, 10 μg/mL was 0.23 ± 0.23%. Moreover, the hemolysis at 60 min, 30 μg/mL in the data set “Haemolysis test” (30 μg/mL) is 0.15 ± 0.13%. Moreover, the hemolysis at 60 min, 100 μg/mL in the data set “Haemolysis test” (100 μg/mL) was 0.31 ± 0.35%. The “haemolysis ratio (HR%)” value in the data set on erythrocytes is given as “less than 5%”.
